Test results taken from patent US4177269A, “Novel 17-esters of 17α-hydroxy gestogens, compositions containing such compounds, processes for their preparation and methods of treatment therewith” (Aktiebolaget Leo, priority 1976, dated 1979).

Legend:
[1] = Hepatome AH 130 tumour growth inhibition in rats; format: in vivo, Sprague-Dawley rats; design: ED50: unit not given here; conditions: rat, in vivo, ip, one i.p. injection
Outline: (§1)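 Sprague-Dawley rats implanted i.p. with 5 × 10^6 tumour cells, given a single i.p. injection the day after implantation, and killed on day 8. Tumour weights compared with controls; ED50 is the dose halving tumour size, LD50 the dose lethal to 50% of animals.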

Hepatome AH 130 = Hepatome AH 130 tumour growth inhibition in rats; format: in vivo, Sprague-Dawley rats; design: ED50: unit not given here; conditions: one i.p. injection, dose causing 50 percent reduction of tumour size, killed 8th day
Outline: as §1

[2] = system: Ehrlich ascites tumour, ELD hyperdiploid; test: Ehrlich ascites tumour, ELD hyperdiploid (46 chromosomes), growth inhibition in mice; format: in vivo, SPF NMRI mice; conditions: 100 mg/kg, one i.p. injection
Outline: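 SPF NMRI mice implanted i.p. with 2 × 10^6 ELD hyperdiploid Ehrlich ascites cells, given one i.p. injection the day after implantation. Animals killed on day 8; tumour weights compared with controls.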

In the case of `CC(=O)[C@@]1(OC(=O)COC(=O)c2ccc(C)c(N(CCCl)CCCl)c2)CC[C@H]2[C@@H]3CCC4=CC(=O)CC[C@]4(C)[C@H]3CC[C@@]21C` [Compound 3:7, 17α-/3-(N,N-bis(2-chloroethyl)amino)-4-methylbenzoyloxyacetoxy/pregn-4-ene-3,20-dione], the LD50 ([1]; dose causing 50 percent lethality, column head not given) is reported as over 250 mg/kg, the selectivity ratio ([1]; read-out: T.I. (LD50/ED50)) is reported as over 125 and the ED50 (Hepatome AH 130) is reported as 2. For the same molecule, the Mortality [2] was 0/12 and the “Tumour weight Treated/Control” value ([2]; 8th day) was 2%.
